Experimental data reported in patent US11952382B1, “2-benzo-[3,4-b]quinolino-[b,g]indeno[1,2:3,4]fluoreno-[1,2-d]oxonine-24-flouro-5,11,16,21-tetraone as an antimicrobial compound” (KING FAISAL UNIVERSITY, priority 2023, dated 2024).

Assays:
Assay type in all cases: cell-based
Conditions in all cases: after 10, 20, 40 and 60 minutes at all dilutions 1:100, 1:200, 1:400, 1:800
Staphylococcus aureus = experiment: Antimicrobial screening by agar dilution, Staphylococcus aureus
Protocol: (§1) The antibacterial properties of the synthesized compound 2-benzo-[3,4-b]quinolino-[b,g]indeno[1′,2′:3,4]fluoreno-[1,2-d]oxonine-24-flouro-5,11,16,21-tetraone were studied by the method of agar dilution. Test solutions of each compound was prepared in concentration of 1% using dimethylformamide as a solvent then they are diluted in physiological solution to obtain the final experimental dilutions 1:100, 1:200, 1:400, 1:800. The effect of these substances are compared with furacillin in a controllable study. The testing microbes used were gram positive bacteria Staphylococcus aureus, gram negative bacteria Pseudomonas aeruginosa and Escherichia coli and Candida albicans fungus. The experiments used for this survey were meat-pentonlu agar (EPA) for cultivation of bacteria and Saburo environment for the fungus. Each experiment used 1 mL of test solution on each plate […]. Two drops of emulsified with microbes feel were added. All experimental samples were taken from the agar after 10, 20, 40, 60 minutes in the environment on the basis of Patrk planted. The bacteria were cultivated at a temperature of 37° C. for 1 day and the mushroom was kept in a thermostat for 2 hours at a temperature of 28° C. Then results were checked.

Escherichia coli = experiment: Antimicrobial screening by agar dilution, Escherichia coli
Protocol: as §1

Pseudomonas aeruginosa = experiment: Antimicrobial screening by agar dilution, Pseudomonas aeruginosa
Protocol: as §1

Candida albicans = experiment: Antimicrobial (antifungal) screening by agar dilution, Candida albicans
Protocol: as §1

Measured: inhibition activity

O=C1Oc2nc3ccc(F)cc3cc2-c2c(c3c4ccccc4c(=O)c3c3c2c(=O)c2ccccc23)C(=O)c2ccccc21 [2-benzo-[3,4-b]quinolino-[b,g]indeno[1′,2′:3,4]fluoreno-[1,2-d]oxonine-24-flouro-5,11,16,21-tetraone]
highest inhibition activity: all assays above
